# Data from ChEMBL document CHEMBL1240349, “Influence of tigecycline on expression of virulence factors in biofilm-associated cells of methicillin-resistant Staphylococcus aureus” (2010).
# Columns and labels:
# Type in all cases: functional
# [1] = test system: Staphylococcus aureus; experiment: Increase in fnbB expression in biofilm-associated cells of epidemic methicillin-resistant Staphylococcus aureus isolate 16-1 at 4 times MIC incubated for 1 hr by RT-PCR relative to untreated control
# [2] = test system: Staphylococcus aureus; experiment: Decrease in capC expression in biofilm-associated cells of epidemic methicillin-resistant Staphylococcus aureus isolate 15 at 4 times MIC incubated for 1 hr by RT-PCR relative to untreated control
# [3] = test system: Staphylococcus aureus; experiment: Increase in dltC gene expression in biofilm-associated cells of epidemic methicillin-resistant Staphylococcus aureus isolate 16 at 4 times MIC incubated for 1 hr by whole genome microarray relative to untreated control
# [4] = test system: Staphylococcus aureus; experiment: Decrease in sasF expression in biofilm-associated cells of epidemic methicillin-resistant Staphylococcus aureus isolate 16-2 at 4 times MIC incubated for 1 hr by RT-PCR relative to untreated control
# [5] = test system: Staphylococcus aureus; experiment: Increase in recU gene expression in biofilm-associated cells of epidemic methicillin-resistant Staphylococcus aureus isolate 16 at 4 times MIC incubated for 1 hr by whole genome microarray relative to untreated control
# [6] = test system: Staphylococcus aureus; experiment: Increase in clfB gene expression in biofilm-associated cells of epidemic methicillin-resistant Staphylococcus aureus isolate 16 at 4 times MIC incubated for 1 hr by RT-PCR relative to untreated control
# [7] = test system: Staphylococcus aureus; experiment: Decrease in capC expression in biofilm-associated cells of epidemic methicillin-resistant Staphylococcus aureus isolate 16-1 at 4 times MIC incubated for 1 hr by RT-PCR relative to untreated control
# [8] = test system: Staphylococcus aureus; experiment: Increase in cna expression in biofilm-associated cells of epidemic methicillin-resistant Staphylococcus aureus isolate 16-2 at 4 times MIC incubated for 1 hr by RT-PCR relative to untreated control
# [9] = test system: Staphylococcus aureus; experiment: Decrease in sodA gene expression in biofilm-associated cells of epidemic methicillin-resistant Staphylococcus aureus isolate 16 at 4 times MIC incubated for 1 hr by whole genome microarray relative to untreated control
# [10] = test system: Staphylococcus aureus; experiment: Increase in cna expression in biofilm-associated cells of epidemic methicillin-resistant Staphylococcus aureus isolate 15 at 4 times MIC incubated for 1 hr by RT-PCR relative to untreated control
# [11] = test system: Staphylococcus aureus; experiment: Decrease in icaC expression in biofilm-associated cells of epidemic methicillin-resistant Staphylococcus aureus isolate 16-1 at 4 times MIC incubated for 1 hr by RT-PCR relative to untreated control
# [12] = test system: Staphylococcus aureus; experiment: Decrease in tst expression in biofilm-associated cells of epidemic methicillin-resistant Staphylococcus aureus isolate 16-1 at 4 times MIC incubated for 1 hr by RT-PCR relative to untreated control
# [13] = test system: Staphylococcus aureus; experiment: Increase in ssaA expression in biofilm-associated cells of epidemic methicillin-resistant Staphylococcus aureus isolate 16-1 at 4 times MIC incubated for 1 hr by RT-PCR relative to untreated control
# [14] = test system: Staphylococcus aureus; experiment: Decrease in sasF gene expression in biofilm-associated cells of epidemic methicillin-resistant Staphylococcus aureus isolate 16 at 4 times MIC incubated for 1 hr by RT-PCR relative to untreated control
# [15] = test system: Staphylococcus aureus; experiment: Increase in mnhE gene expression in biofilm-associated cells of epidemic methicillin-resistant Staphylococcus aureus isolate 16 at 4 times MIC incubated for 1 hr by whole genome microarray relative to untreated control
# [16] = test system: Staphylococcus aureus; experiment: Increase in mnhG gene expression in biofilm-associated cells of epidemic methicillin-resistant Staphylococcus aureus isolate 16 at 4 times MIC incubated for 1 hr by whole genome microarray relative to untreated control
# [17] = test system: Staphylococcus aureus; experiment: Increase in mnhF gene expression in biofilm-associated cells of epidemic methicillin-resistant Staphylococcus aureus isolate 16 at 4 times MIC incubated for 1 hr by whole genome microarray relative to untreated control
# [18] = test system: Staphylococcus aureus; experiment: Increase in dnaG gene expression in biofilm-associated cells of epidemic methicillin-resistant Staphylococcus aureus isolate 16 at 4 times MIC incubated for 1 hr by whole genome microarray relative to untreated control
# [19] = test system: Staphylococcus aureus; experiment: Increase in pbp2 gene expression in biofilm-associated cells of epidemic methicillin-resistant Staphylococcus aureus isolate 16 at 4 times MIC incubated for 1 hr by whole genome microarray relative to untreated control
# [20] = test system: Staphylococcus aureus; experiment: Increase in rpmI gene expression in biofilm-associated cells of epidemic methicillin-resistant Staphylococcus aureus isolate 16 at 4 times MIC incubated for 1 hr by whole genome microarray relative to untreated control
# [21] = test system: Staphylococcus aureus; experiment: Decrease in capF gene expression in biofilm-associated cells of epidemic methicillin-resistant Staphylococcus aureus isolate 16 at 4 times MIC incubated for 1 hr by whole genome microarray relative to untreated control
# [22] = test system: Staphylococcus aureus; experiment: Decrease in capG expression in biofilm-associated cells of epidemic methicillin-resistant Staphylococcus aureus isolate 16-1 at 4 times MIC incubated for 1 hr by RT-PCR relative to untreated control
# [23] = test system: Staphylococcus aureus; experiment: Increase in cna gene expression in biofilm-associated cells of epidemic methicillin-resistant Staphylococcus aureus isolate 16 at 4 times MIC incubated for 1 hr by whole genome microarray relative to untreated control
# [24] = test system: Staphylococcus aureus; experiment: Decrease in clpC gene expression in biofilm-associated cells of epidemic methicillin-resistant Staphylococcus aureus isolate 16 at 4 times MIC incubated for 1 hr by RT-PCR relative to untreated control
# [25] = test system: Staphylococcus aureus; experiment: Increase in rplN gene expression in biofilm-associated cells of epidemic methicillin-resistant Staphylococcus aureus isolate 16 at 4 times MIC incubated for 1 hr by whole genome microarray relative to untreated control
# [26] = test system: Staphylococcus aureus; experiment: Decrease in clpC expression in biofilm-associated cells of epidemic methicillin-resistant Staphylococcus aureus isolate 16-1 at 4 times MIC incubated for 1 hr by RT-PCR relative to untreated control
# [27] = test system: Staphylococcus aureus; experiment: Decrease in icaC gene expression in biofilm-associated cells of epidemic methicillin-resistant Staphylococcus aureus isolate 16 at 4 times MIC incubated for 1 hr by whole genome microarray relative to untreated control
# [28] = test system: Staphylococcus aureus; experiment: Decrease in fnbB expression in biofilm-associated cells of epidemic methicillin-resistant Staphylococcus aureus isolate 16-2 at 4 times MIC incubated for 1 hr by RT-PCR relative to untreated control
# [29] = test system: Staphylococcus aureus; experiment: Decrease in sasF expression in biofilm-associated cells of epidemic methicillin-resistant Staphylococcus aureus isolate 16-1 at 4 times MIC incubated for 1 hr by RT-PCR relative to untreated control
# [30] = test system: Staphylococcus aureus; experiment: Increase in infB gene expression in biofilm-associated cells of epidemic methicillin-resistant Staphylococcus aureus isolate 16 at 4 times MIC incubated for 1 hr by whole genome microarray relative to untreated control
# [31] = test system: Staphylococcus aureus; experiment: Increase in isaA expression in biofilm-associated cells of epidemic methicillin-resistant Staphylococcus aureus isolate 15 at 4 times MIC incubated for 1 hr by RT-PCR relative to untreated control
# [32] = test system: Staphylococcus aureus; experiment: Increase in ssaA expression in biofilm-associated cells of epidemic methicillin-resistant Staphylococcus aureus isolate 15 at 4 times MIC incubated for 1 hr by RT-PCR relative to untreated control
# [33] = test system: Staphylococcus aureus; experiment: Increase in fnbB gene expression in biofilm-associated cells of epidemic methicillin-resistant Staphylococcus aureus isolate 16 at 4 times MIC incubated for 1 hr by RT-PCR relative to untreated control
# [34] = test system: Staphylococcus aureus; experiment: Increase in rplD gene expression in biofilm-associated cells of epidemic methicillin-resistant Staphylococcus aureus isolate 16 at 4 times MIC incubated for 1 hr by whole genome microarray relative to untreated control
structure (smiles),measurement,setting,value
CN(C)c1cc(NC(=O)CNC(C)(C)C)c(O)c2c1C[C@H]1C[C@H]3[C@H](N(C)C)C(O)=C(C(N)=O)C(=O)[C@@]3(O)C(O)=C1C2=O [TIGECYCLINE],fold change (FC),[1],3.03
same,fold change (FC),[2],1.64
same,fold change (FC),[3],2.29
same,fold change (FC),[4],3.53
same,fold change (FC),[5],4.38
same,fold change (FC),[6],7.5
same,fold change (FC),[7],1.75
same,fold change (FC),[8],1.2
same,fold change (FC),[9],2.59
same,fold change (FC),[10],1.55
same,fold change (FC),[11],2.23
same,fold change (FC),[12],1.51
same,fold change (FC),[13],2.04
same,fold change (FC),[14],1.32
same,fold change (FC),[15],3.15
same,fold change (FC),[16],2.85
same,fold change (FC),[17],3.27
same,fold change (FC),[18],2.19
same,fold change (FC),[19],3.91
same,fold change (FC),[20],10.51
same,fold change (FC),[21],2.66
same,fold change (FC),[22],1.01
same,fold change (FC),[23],2.1
same,fold change (FC),[24],1.14
same,fold change (FC),[25],13.76
same,fold change (FC),[26],1.14
same,fold change (FC),[27],2.06
same,fold change (FC),[28],1.53
same,fold change (FC),[29],1.32
same,fold change (FC),[30],2.35
same,fold change (FC),[31],1.09
same,fold change (FC),[32],1.17
same,fold change (FC),[33],3.03
same,fold change (FC),[34],13.06
